Laboratory results from US11091478B2 (Fochon Pharmaceuticals, Ltd., priority 2017, dated 2021).
Like-named read-outs stand apart in the source and are kept apart here.

What was measured:
DOHH2 cells = test: Cell proliferation assay (MTS), DOHH2 cells, 120 h; type: cell-based
Outline: (§1)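 Treatment lasts 72 h for RS4;11 and 120 h for DOHH2 cells seeded at 5000 per well in serum-containing RPMI-1640. A 2 h MTS step, halted with 10% SDS, precedes dual-wavelength absorbance reading and IC50 fitting.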

RS4;11 cells = test: Cell proliferation assay (MTS), RS4;11 cells, 72 h; type: cell-based
Outline: as §1

Row | Structure (SMILES) | IC50 (RS4;11 cells; Homo sapiens, RS4-11, 72 h) [µM] | IC50 (DOHH2 cells; Homo sapiens, DOHH-2, 120 h) [µM] | IC50 (DOHH2 cells) [µM] | IC50 (RS4;11 cells) [µM]
1 | CC1(C)CCC(CN2CCN(c3ccc(C(=O)NS(=O)(=O)c4cc5c(c([N+](=O)[O-])c4)N[C@@H](CN4CCN(C(=O)C6CC6)CC4)CO5)c(Oc4cnc5[nH]ccc5c4)c3)CC2)=C(c2ccc(Cl)cc2)C1 [Example 2-99, (S)-2-((1H-pyrrolo[2,3-b]pyridin-5-yl)oxy)-4-(4-((4′-chloro-5,5-dimethyl-3,4,5,6-tetra-hydro-[1,1′-biphenyl]-2-yl)methyl)piperazin-1-yl)-N-((3-((4-(cyclopropanecarbonyl)piperazin-1-yl)methyl)-5-nitro-3,4-dihydro-2H-benzo[b][1,4]oxazin-7-yl)sulfonyl)benza-mide] | 0.008 | 0.02 |  | 
2 | C[C@@H]1CNc2c(cc(S(=O)(=O)NC(=O)c3ccc(N4CCN(CC5=C(c6ccc(Cl)cc6)CC(C)(C)CC5)CC4)cc3Oc3cnc4[nH]ccc4c3)cc2[N+](=O)[O-])O1 [Example 2-100, (R)-2-((1H-pyrrolo[2,3-b]pyridin-5-yl)oxy)-4-(4-((4′-chloro-5,5-dimethyl-3,4,5,6-tetra-hydro[1,1′-biphenyl]-2-yl)methyl)piperazin-1-yl)-N-((2-methyl-5-nitro-3,4-dihydro-2H-benzo[b][1,4]oxazin-7-yl)sulfonyl)benza-mide] | 0.022 | 0.031 |  | 
3 | CN(C)C(=O)[C@H]1COc2cc(S(=O)(=O)NC(=O)c3ccc(N4CCN(CC5=C(c6ccc(Cl)cc6)CC(C)(C)CC5)CC4)cc3Oc3cnc4[nH]ccc4c3)cc([N+](=O)[O-])c2N1 [Example 2-102, (R)-7-(N-(2-((1H-pyrrolo[2,3-b]pyridin-5-yl)oxy)-4-(4-((4′-chloro-5,5-dimethyl-3,4,5,6-tetrahydro-[1,1′-biphenyl]-2-yl)methyl)pi-perazin-1-yl)benzoyl)sulfamoyl)-N,N-dimethyl-5-nitro-3,4-dihydro-2H-benzo[b] [1,4]oxazine-3-carboxamide] | 0.01 | 0.095 |  | 
4 | CC1(C)CCC(CN2CCN(c3ccc(C(=O)NS(=O)(=O)c4cc5c(c([N+](=O)[O-])c4)N[C@@H](C(=O)N4CCOCC4)CO5)c(Oc4cnc5[nH]ccc5c4)c3)CC2)=C(c2ccc(Cl)cc2)C1 [Example 2-103] | 0.016 | 0.49 |  | 
5 | CN1CCN(C(=O)[C@H]2COc3cc(S(=O)(=O)NC(=O)c4ccc(N5CCN(CC6=C(c7ccc(Cl)cc7)CC(C)(C)CC6)CC5)cc4Oc4cnc5[nH]ccc5c4)cc([N+](=O)[O-])c3N2)CC1 [Example 2-104, (R)-2-((1H-pyrrolo[2,3-b]pyridin-5-yl)oxy)-4-(4-((4′-chloro-5,5-dimethyl-3,4,5,6-tetra-hydro[1,1′-biphenyl]-2-yl)methyl)piperazin-1-yl)-N-((3-(4-methylpiperazine-1-carbo-nyl)-5-nitro-3,4-dihydro-2H-benzo[b][1,4]oxazin-7-yl)sulfonyl)benzamide] | 0.007 | 0.173 |  | 
6 | C[C@H]1CNc2c(cc(S(=O)(=O)NC(=O)c3ccc(N4CCN(CC5=C(c6ccc(Cl)cc6)CC(C)(C)CC5)CC4)cc3Oc3cnc4[nH]ccc4c3)cc2[N+](=O)[O-])O1 [Example 2-105, (S)-2-((1H-pyrrolo[2,3-b]pyridin-5-yl)oxy)-4-(4-((4′-chloro-5,5-dimethyl-3,4,5,6-tetra-hydro-[1,1′-biphenyl]-2-yl)methyl)piperazin-1-yl)-N-((2-methyl-5-nitro-3,4-dihydro-2H-benzo[b][1,4]oxazin-7-yl)sulfonyl)benza-mide] | 0.035 | 0.051 |  | 
7 | C[C@@H]1COc2cc(S(=O)(=O)NC(=O)c3ccc(N4CCN(CC5=C(c6ccc(Cl)cc6)CC(C)(C)CC5)CC4)cc3Oc3cnc4[nH]ccc4c3)cc([N+](=O)[O-])c2N1 [Example 2-106, (R)-2-((1H-pyrrolo[2,3-b]pyridin-5-yl)oxy)-4-(4-((4′-chloro-5,5-dimethyl-3,4,5,6-tetra-hydro-[1,1′-bipehnyl]-2-yl)methyl)piperazin-1-yl)-N-((3-methyl-5-nitro-3,4-dihydro-2H-benzo[b][1,4]oxazin-7-yl)sulfonyl)benza-mide] | 0.009 | 0.019 |  | 
8 | CC[C@@H]1COc2cc(S(=O)(=O)NC(=O)c3ccc(N4CCN(CC5=C(c6ccc(Cl)cc6)CC(C)(C)CC5)CC4)cc3Oc3cnc4[nH]ccc4c3)cc([N+](=O)[O-])c2N1 [Example 2-107] | 0.008 | 0.022 |  | 
9 | CC(C)[C@@H]1COc2cc(S(=O)(=O)NC(=O)c3ccc(N4CCN(CC5=C(c6ccc(Cl)cc6)CC(C)(C)CC5)CC4)cc3Oc3cnc4[nH]ccc4c3)cc([N+](=O)[O-])c2N1 [Example 2-108, (R)-2-((1H-pyrrolo[2,3-b]pyridin-5-yl)oxy)-4-(4-((4′-chloro-5,5-dimethyl-3,4,5,6-tetra-hydro-[1,1′-biphenyl]-2-yl)methyl)piperazin-1-yl)-N-((3-isopropyl-5-nitro-3,4-dihydro-2H-benzo[b][1,4]oxazin-7-yl)sulfonyl) benzamide] | 0.016 | 0.051 |  | 
10 | CC1(C)CCC(CN2CCN(c3ccc(C(=O)NS(=O)(=O)c4cc5c(c([N+](=O)[O-])c4)N[C@@H](CC#N)CO5)c(Oc4cnc5[nH]ccc5c4)c3)CC2)=C(c2ccc(Cl)cc2)C1 [Example 2-115, (S)-2-((1H-pyrrolo[2,3-b]pyridin-5-yl)oxy)-4-(4-((4′-chloro-5,5-dimethyl-3,4,5,6-tetra-hydro-[1,1′-biphenyl]-2-yl)methyl)piperazin-1-yl)-N-((3-(cyanomethyl)-5-nitro-3,4-di-hydro-2H-benzo[b][1,4]oxazin-7-yl)sulfonyl-yl)benzamide] |  |  | 0.038 | 0.006

Further lines, with some results ahead:

Row | IC50 (RS4;11 cells; Homo sapiens, RS4-11, 72 h) [µM] | Structure (SMILES) | IC50 (DOHH2 cells; Homo sapiens, DOHH-2, 120 h) [µM] | IC50 (DOHH2 cells) [µM] | IC50 (RS4;11 cells) [µM]
11 | 0.011 | CC1(C)CCC(CN2CCN(c3ccc(C(=O)NS(=O)(=O)c4cc5c(c([N+](=O)[O-])c4)N[C@H](C4CC4)CO5)c(Oc4cnc5[nH]ccc5c4)c3)CC2)=C(c2ccc(Cl)cc2)C1 [Example 2-109, (R)-2-((1H-pyrrolo[2,3-b]pyridin-5-yl)oxy)-4-(4-((4′-chloro-5,5-dimethyl-3,4,5,6-tetra-hydro[1,1′-biphenyl]-2-yl)methyl)piperazin-1-yl)-N-((3-cyclopropyl-5-nitro-3,4-dihy-dro-2H-benzo[b][14,]oxazin-7-yl)sulfonyl) benzamide] | 0.056 |  | 
12 | 0.002 | COC[C@@H]1COc2cc(S(=O)(=O)NC(=O)c3ccc(N4CCN(CC5=C(c6ccc(Cl)cc6)CC(C)(C)CC5)CC4)cc3Oc3cnc4[nH]ccc4c3)cc([N+](=O)[O-])c2N1 [Example 2-110, (R)-2-((1H-pyrrolo[2,3-b]pyridin-5-yl)oxy)-4-(4-((4′-chloro-5,5-dimethyl-3,4,5,6-tetra-hydro-[1,1′-biphenyl]-2-yl)methyl)piperazin-1-yl)-N-((3-(methoxymethyl)-5-nitro-3,4-dihydro-2H-benzo[b][1,4]oxazin-7-yl)sulfo-nyl)benzamide] | 0.096 |  | 
13 | 0.028 | C[C@H]1COc2cc(S(=O)(=O)NC(=O)c3ccc(N4CCN(CC5=C(c6ccc(Cl)cc6)CC(C)(C)CC5)CC4)cc3Oc3cnc4[nH]ccc4c3)cc([N+](=O)[O-])c2N1 [Example 2-111, (S)-2-((1H-pyrrolo[2,3-b]pyridin-5-yl)oxy)-4-(4-((4′-chloro-5,5-dimethyl-3,4,5,6-tetra-hydro-[1,1′-biphenyl]-2-yl)methyl)piperazin-1-yl)-N-((3-methyl-5-nitro-3,4-dihydro-2H-benzo[b][1,4]oxazin-7-yl)sulfonyl)benza-mide] | 0.026 |  | 
14 | 0.011 | CC[C@H]1COc2cc(S(=O)(=O)NC(=O)c3ccc(N4CCN(CC5=C(c6ccc(Cl)cc6)CC(C)(C)CC5)CC4)cc3Oc3cnc4[nH]ccc4c3)cc([N+](=O)[O-])c2N1 [Example 2-112] | 0.015 |  | 
15 | 0.006 | CC(C)[C@H]1COc2cc(S(=O)(=O)NC(=O)c3ccc(N4CCN(CC5=C(c6ccc(Cl)cc6)CC(C)(C)CC5)CC4)cc3Oc3cnc4[nH]ccc4c3)cc([N+](=O)[O-])c2N1 [Example 2-113, (S)-2-((1H-pyrrolo[2,3-b]pyridin-5-yl)oxy)-4-(4-((4′-chloro-5,5-dimethyl-3,4,5,6-tetra-hydro-[1,1′-biphenyl]-2-yl)methyl)piperazin-1-yl)-N-((3-isopropyl-5-nitro-3,4-dihydro-2H-benzo[b][1,4]oxazin-7-yl)sulfonyl) benzamide] | 0.02 |  | 
16 | 0.001 | CC1(C)CCC(CN2CCN(c3ccc(C(=O)NS(=O)(=O)c4cc5c(c([N+](=O)[O-])c4)N[C@@H](C4CC4)CO5)c(Oc4cnc5[nH]ccc5c4)c3)CC2)=C(c2ccc(Cl)cc2)C1 [Example 2-114, (S)-2-((1H-pyrrolo[2,3-b]pyridin-5-yl)oxy)-4-(4-((4′-chloro-5,5-dimethyl-3,4,5,6-tetra-hydro-[1,1′-biphenyl]-2-yl)methyl)piperazin-1-yl)-N-((3-cyclopropyl-5-nitro-3,4-di-hydro-2H-benzo[b][1,4]oxazin-7-yl)sulfonyl)benzamide] | 0.048 |  | 
17 | 0.016 | COC[C@H]1COc2cc(S(=O)(=O)NC(=O)c3ccc(N4CCN(CC5=C(c6ccc(Cl)cc6)CC(C)(C)CC5)CC4)cc3Oc3cnc4[nH]ccc4c3)cc([N+](=O)[O-])c2N1 [Example 2-116, (S)-2-((1H-pyrrolo[2,3-b]pyridin-5-yl)oxy)-4-(4-((4′-chloro-5,5-dimethyl-3,4,5,6-tetra-hydro-[1,1′-biphenyl]-2-yl)methyl)piperazin-1-yl)-N-((3-(methoxymethyl)-5-nitro-3,4-dihydro-2H-benzo[b][1,4]oxazin-7-yl)sulfonyl)benzamide] | 0.083 |  | 
18 | 0.044 | CC1(C)CCC(CN2CCN(c3ccc(C(=O)NS(=O)(=O)c4cc5c(c([N+](=O)[O-])c4)N[C@@H](COC(=O)N4CCOCC4)CO5)c(Oc4cnc5[nH]ccc5c4)c3)CC2)=C(c2ccc(Cl)cc2)C1 [Example 2-117, (R)-(7-(N-(2-((1H-pyrrolo[2,3-b]pyridin-5-yl)oxy)-4-(4-((4′-chloro-5,5-dimethyl-3,4,5,6-tetrahydro-[1,1′-biphenyl]-2-yl)methyl)piperazin-1-yl)benzoyl)sulfamoyl)-5-nitro-3,4-dihydro-2H-benzo[b][1,4]oxazin-3-yl)methyl morpholine-4-carboxylate] | 0.041 |  | 
